“Also recorded” adds a separate entry of the source. Where a SMILES comes first, the peptide text is derived from it. The star is where a group is joined. Palmitoyl = CCCCCCCCCCCCCCCC(=O)*
Tests used:
Format in all cases: physicochemical
[1] = Gelation kinetics and rheological properties of gels formed in artificial cerebrospinal fluid (rheometer); conditions: for tan(δ) (loss modulus divided by storage modulus): gel in artificial cerebrospinal fluid
Method: Chemical structures for these molecules are also depicted in FIG. 1. Experiments were performed to examine the gelation kinetics and rheological properties of SEQ ID NO:2 with SEQ ID NO:6. Peptide amphiphile samples were dissolved in water at a concentration of 10 mg/mL.
A Physica, Inc. MCR 300 Molecular Compact Rheometer equipped with a 25 mm plate was used to measure stiffness of gels formed by SEQ ID NO:2 and SEQ ID NO:6 in vitro. Samples were measured at 21° C., 0.5% shear strain, with a frequency (ω) of 10 Hz and a gap between the plates of 0.5 mm. G′ (storage modulus) and […] were measured with respect to time post-gelation.
Tan(δ) (defined as the loss modulus divided by the storage modulus) quantifies the balance between energy loss and energy storage in a material, regardless of viscosity.

[2] = Solubility in aqueous ammonium hydroxide buffer; conditions: for solubility: water containing 0.1 vol % ammonium hydroxide, water containing 0.1% by volume ammonium hydroxide
Method: SEQ ID NO:2 or SEQ ID NO:4 was dissolved at 20 mg/mL in an aqueous solution with sufficient ammoniumhydroxide to obtain a pH of 9. This solution was purified in 5 mL aliquots using an Agilent, Inc. model 1100 preparative HPLC equipped with a Phenomenex, Inc. Gemini® 5 μm C18 column (100×30 mm). An elution gradient of water and acetonitrile (each containing 0.1 vol % ammonium hydroxide buffer) was used, as shown in FIG. 2A. The flow rate was 15 mL/min, and the mobile phase was pre-heated to ca. 45° C. using a Timberline Instruments TL-105 column heater.
While the amino acid sequence change between SEQ ID NO:2 and SEQ ID NO:6 appears at first glance to be relatively minor, it nevertheless confers several important and unexpected consequences. The additional glutamic acid residue increases the aqueous solubility and broadens the type of aqueous buffers in which the molecule is soluble. Absent this modification, the only amino acid side chains that are ionized under physiological conditions in SEQ ID NO:6 form a zwitterion (e.g. Glu-Ile-Lys), which limits the molecule's solubility in most aqueous buffers. […] This change has important implications for the manufacturability and clinical development of the peptide amphiphile, as solubility in an ammonium hydroxide buffer greatly facilitates purification by HPLC.
This seemingly insignificant modification (the deletion of one methylene group from the residue) results in a greater than 20-fold increase in aqueous solubility of the peptide amphiphile in an ammonium hydroxide buffer, greatly facilitating purification by HPLC (see FIG. 2D).

[3] = Dissolution in water on pH adjustment with NaOH; conditions: 5 mg/mL in water, pH adjusted to 7.0-7.5 with NaOH
Method: The lyophilized peptide amphiphile powder was weighed and re-dissolved in USP pharmaceutical grade water at a concentration of 5 mg/mL. The colloidal suspension obtained was agitated in an ultrasonic bath for 30 min.

[4] = 21° C., 0.5% shear strain, 10 Hz

tan(δ) (loss modulus divided by storage modulus) [1, 4] | complex shear modulus (G*) compared with SEQ ID NO:6 ([1]; one hour post-gelation, 10 mg/mL solution mixed with equal volume of artificial CSF, 21° C., 0.5% shear strain, 10 Hz) | solubility [2] [mg/mL] | dissolution of colloidal suspension on pH adjustment [3] | increase in aqueous solubility relative to SEQ ID NO:6 ([2]; ammonium hydroxide buffer) | SMILES | self-assembly / gel formation induced by artificial CSF ([1]; 10 mg/mL in water mixed with equal volume of artificial CSF) | solubility (in words) ([2]; 0.1 vol % ammonium hydroxide aqueous buffer)
significantly lower | an order of magnitude greater | > 20 | go readily into solution |  | CCCCCCCCCCCCCCCC(=O)N[C@@H](CO)C(=O)N[C@@H](CC(C)C)C(=O)N[C@@H](CO)C(=O)N[C@@H](CC(C)C)C(=O)N[C@@H](C)C(=O)N[C@@H](C)C(=O)N[C@@H](C)C(=O)N[C@@H](CCC(=O)O)C(=O)N[C@@H](CCC(=O)O)C(=O)N[C@H](C(=O)N[C@@H](CCCCN)C(=O)N[C@H](C(=O)N[C@@H](C)C(=O)N[C@H](C(=O)O)C(C)C)C(C)C)[C@@H](C)CC [SEQ ID NO:2, C16H31O-Ser-Leu-Ser-Leu-Ala-Ala-Ala-Glu-Glu-Ile-Lys-Val-Ala-Val-OH] (Palmitoyl-SLSLAAAEEIKVAV-OH) | resulting in a gel with the desired properties | 
 |  | > 20 | go readily into solution | greater than 20 fold | CCCCCCCCCCCCCCCC(=O)N[C@@H](CO)C(=O)N[C@@H](CC(C)C)C(=O)N[C@@H](CO)C(=O)N[C@@H](CC(C)C)C(=O)N[C@@H](C)C(=O)N[C@@H](C)C(=O)N[C@@H](C)C(=O)N[C@@H](CC(=O)O)C(=O)N[C@H](C(=O)N[C@@H](CCCCN)C(=O)N[C@H](C(=O)N[C@@H](C)C(=O)N[C@H](C(=O)O)C(C)C)C(C)C)[C@@H](C)CC [SEQ ID NO:4, C16H31O-Ser-Leu-Ser-Leu-Ala-Ala-Ala-Asp-Ile-Lys-Val-Ala-Val-OH] (Palmitoyl-SLSLAAADIKVAV-OH) |  | 
liquid-like |  | < 1 |  |  | CCCCCCCCCCCCCCCC(=O)N[C@@H](CO)C(=O)N[C@@H](CC(C)C)C(=O)N[C@@H](CO)C(=O)N[C@@H](CC(C)C)C(=O)N[C@@H](C)C(=O)N[C@@H](C)C(=O)N[C@@H](C)C(=O)N[C@@H](CCC(=O)O)C(=O)N[C@H](C(=O)N[C@@H](CCCCN)C(=O)N[C@H](C(=O)N[C@@H](C)C(=O)N[C@H](C(=O)O)C(C)C)C(C)C)[C@@H](C)CC [SEQ ID NO:6, C16H31O-Ser-Leu-Ser-Leu-Ala-Ala-Ala-Glu-Ile-Lys-Val-Ala-Val-OH, reference compound] (Palmitoyl-SLSLAAAEIKVAV-OH) |  | relatively low solubility; also recorded: only sparingly soluble

From patent publication US8076295B2, “Peptide amphiphiles having improved solubility and methods of using same” (Nanotope, Inc., priority 2007, dated 2011)
